Measurements reported in patent USRE47689E1, “Compounds for treating spinal muscular atrophy” (PTC Therapeutics, Inc., priority 2011, dated 2019).

Columns and labels:
[1] = system: SMN2 minigene (full length SMN2 minigene mRNA containing SMN2 exon 7); assay: SMN2 minigene mRNA splicing RT-qPCR assay in cultured cells; format: cell-based, human; details: Homo sapiens, HEK293-H; HEK293H cells stably transfected with SMN2-A minigene; 24 hours; 7-point concentration curve; 1.5-fold relative to vehicle-treated cells; read-out: EC1.5x for production of full length SMN2 mRNA
Procedure, shortened: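 HEK293H cells stably carrying the SMN2-A minigene treated 24 h at 37° C with compound (DMSO, 200× stock), then lysed. Multiplex RT-qPCR (SMN primers 0.4 μM final; 40 cycles) measures full-length exon 7-containing minigene mRNA, normalized to GAPDH and to vehicle; EC1.5x derived and binned by stars.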

[2] = system: Smn protein; assay: Smn protein assay in cultured cells (SMN HTRF); format: cell-based, human; details: 48 hours; for EC1.5x (concentration giving 1.5-fold Smn protein increase): SMA Type 1 patient fibroblast cells (GM03813), 7-point concentration curve, SMN HTRF, concentration producing 1.5 times Smn protein vs DMSO vehicle control, read-out: EC1.5x for Smn protein expression; for maximum fold (Fold) increase of Smn protein: SMA patient fibroblast cells, 7-point concentration data, fold increase relative to vehicle control (SMN HTRF)
Procedure, shortened: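 Lysates in RIPA with protease inhibitors are incubated overnight at room temperature with HTRF anti-SMN antibodies. EC1.5x is derived from fold increase in ΔF over vehicle.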

Q: What does the source list for `Cc1cn2cc(-c3cc4ccc(C5CCN(CC(C)C)CC5)cc4oc3=O)nc2cn1` [Compound 916, 3-(6-methylimidazo[1,2-a]pyrazin-2-yl)-7-[1-(2-methylpropyl)piperidin-4-yl]-2H-chromen-2-one]?
A: EC (1.5-fold) [1]: 0.1 to 0.3 µM; EC1.5x (concentration giving 1.5-fold Smn protein increase) [2]: 300 to 1000 nM; maximum fold (Fold) increase of Smn protein [2]: **** (fold increase between >1.5 and ≤1.65); melting point: 260 to 270 °C

Q: Which results are given for `Cc1cc(F)c2nc(-c3cc4ccc(N5CC6CCC5CN6)cc4oc3=O)cn2c1` (stereo not shown) [Compound 600, 7-(2,5-diazabicyclo[2.2.2]oct-2-yl)-3-(8-fluoro-6-methylimidazo[1,2-a]pyridin-2-yl)-2H-chromen-2-one]?
A: EC (1.5-fold) [1]: < 0.1 µM; EC1.5x (concentration giving 1.5-fold Smn protein increase) [2]: < 300 nM; maximum fold (Fold) increase of Smn protein [2]: ***** (fold increase >1.65); melting point: 246 to 256 °C

Q: With `O=c1oc2cc(N3CCNCC3)cc(F)c2cc1-c1nc2ccccc2[nH]1` [Compound 375, 3-(1H-benzimidazol-2-yl)-5-fluoro-7-(piperazin-1-yl)-2H-chromen-2-one] as the compound, how does the EC (1.5-fold) [1] read?
A: Its EC (1.5-fold) is 0.3 to 1 µM.

Q: What about the “maximum fold (Fold) increase of Smn protein” value (“maximum fold (Fold) increase” below) [2] of the same compound?
A: Its value is “** (fold increase between >1.2 and ≤1.35)”.

Q: What about the melting point of the same compound?
A: The melting point was 245 to 250 °C.

Q: For `C[C@@H]1CN(c2ccc3cc(-c4cn5cccc(Cl)c5n4)c(=O)oc3c2)C[C@H](C)N1C` [Compound 137, 3-(8-chloroimidazo[1,2-a]pyridin-2-yl)-7-[(3R,5S)-3,4,5-trimethylpiperazin-1-yl]-2H-chromen-2-one], which EC (1.5-fold) [1] is on record?
A: The EC (1.5-fold) was 1 to 3 µM.

Q: And the “maximum fold (Fold) increase” value [2]?
A: The value was “*** (fold increase between >1.35 and ≤1.5)”.

Q: What about the melting point of the same compound?
A: Its melting point is 244 to 247 °C.

Q: Which EC (1.5-fold) [1] does the source give for `Cc1ccc2nc(-c3cc4ccc(CN5CCC(O)C5)cc4oc3=O)cn2c1` (stereo not shown) [Compound 253, 7-[(3-hydroxypyrrolidin-1-yl)methyl]-3-(6-methylimidazo[1,2-a]pyridin-2-yl)-2H-chromen-2-one] here?
A: Its EC (1.5-fold) is 1 to 3 µM.

Q: What about the “maximum fold (Fold) increase” value [2] of the same compound?
A: The value was “* (maximum fold increase of ≤1.2)”.

Q: What about the melting point of the same compound?
A: Its melting point is 227 to 230 °C.

Q: Which EC (1.5-fold) [1] does the source give for `Cc1ccc2nc(-c3cc4ccc(N5CCN(C(C)C)CC5)cc4oc3=O)cn2c1` [Compound 82, 3-(6-methylimidazo[1,2-a]pyridin-2-yl)-7-[4-(propan-2-yl)piperazin-1-yl]-2H-chromen-2-one] here?
A: Its EC (1.5-fold) is 1 to 3 µM.

Q: And the “maximum fold (Fold) increase” value [2]?
A: Its value is “** (fold increase between >1.2 and ≤1.35)”.

Q: What about the melting point of the same compound?
A: The melting point was 260 °C (dec.).

Q: Which EC (1.5-fold) [1] does the source give for `Cc1cn2cc(-c3cc4ccc(N5C[C@H]6CN(CCO)C[C@H]6C5)cc4oc3=O)nc2c(C)n1` [Compound 741, 3-(6,8-dimethylimidazo[1,2-a]pyrazin-2-yl)-7-[(3aR,6aS)-5-(2-hydroxyethyl)hexahydropyrrolo[3,4-c]pyrrol-2(1H)-yl]-2H-chromen-2-one] here?
A: Its EC (1.5-fold) is < 0.1 µM.

Q: And the EC1.5x (concentration giving 1.5-fold Smn protein increase) [2]?
A: The EC1.5x (concentration giving 1.5-fold Smn protein increase) was < 300 nM.

Q: And the “maximum fold (Fold) increase” value [2]?
A: The value was “***** (fold increase >1.65)”.

Q: What about the melting point of the same compound?
A: The melting point was 258 to 268 °C.

Q: With `C[C@H]1CN(c2ccc3cc(-c4cn5cc(F)cc(F)c5n4)c(=O)oc3c2)CCN1` [Compound 524, 3-(6,8-difluoroimidazo[1,2-a]pyridin-2-yl)-7-[(3S)-3-methylpiperazin-1-yl]-2H-chromen-2-one] as the compound, how does the EC (1.5-fold) [1] read?
A: The EC (1.5-fold) was 0.3 to 1 µM.

Q: What about the “maximum fold (Fold) increase” value [2] of the same compound?
A: Its value is “* (maximum fold increase of ≤1.2)”.

Q: What about the melting point of the same compound?
A: Its melting point is 218 to 224 °C.

Q: For `Cc1cn2cc(-c3cc4ccc(N5CCN(C6CCC6)CC5)cc4oc3=O)nc2cn1` [Compound 838, 7-(4-cyclobutylpiperazin-1-yl)-3-(6-methylimidazo[1,2-a]pyrazin-2-yl)-2H-chromen-2-one], which EC (1.5-fold) [1] is on record?
A: Its EC (1.5-fold) is < 0.1 µM.

Q: What about the EC1.5x (concentration giving 1.5-fold Smn protein increase) [2] of the same compound?
A: The EC1.5x (concentration giving 1.5-fold Smn protein increase) was < 300 nM.

Q: What about the “maximum fold (Fold) increase” value [2] of the same compound?
A: The value was “***** (fold increase >1.65)”.

Q: What about the melting point of the same compound?
A: The melting point was 268 to 274 °C.

Q: What does the source list for `C[C@@H]1CN(c2ccc3cc(-c4cn5ccc(C(F)(F)F)cc5n4)c(=O)oc3c2)C[C@H](C)N1` [Compound 116, 7-[(3R,5S)-3,5-dimethylpiperazin-1-yl]-3-[7-(trifluoromethyl)imidazo[1,2-a]pyridin-2-yl]-2H-chromen-2-one]?
A: EC (1.5-fold) [1]: 0.3 to 1 µM; maximum fold (Fold) increase of Smn protein [2]: ** (fold increase between >1.2 and ≤1.35); melting point: 257 to 264 °C
